Reference: patent US11446394B2, “Lipid nanoparticle formulations comprising lipidated cationic peptide compounds for nucleic acid delivery” (NUTCRACKER THERAPEUTICS, INC., priority 2018, dated 2022)

Assays:
[1] = mRNA encapsulation by Qubit RNA HS dye fluorescence before and after Triton X-100 lysis; type: physicochemical; conditions: percentage of mRNA encapsulation; Fluc mRNA/peptoid formulation, 5:1 mass ratio peptoid:cargo
Protocol: (§1) To prepare nanoparticle formulations, the tertiary amino lipidated and/or PEGylated cationic peptide compound is mixed by pipetting with nucleic acid at a mass ratio between approximately 1:1 (peptide compound:cargo) and 20:1. Prior to formulation, tertiary amino lipidated and/or PEGylated cationic peptide compounds and cargo (such as nucleic acid) are diluted in ethanol and acidic buffer (PBS adjusted to pH 5.5 with 0.1 M HCl) respectively to a volume ratio of 1:3 and to target a final cargo concentration of approximately 0.05 mg/mL to 0.2 mg/mL. The exemplary amino lipidated cationic peptoids 1-36 described in Example 2 were combined with firefly luciferase (Fluc) mRNA to form nanoparticle compositions to be evaluated for therapeutic and/or prophylactic purposes in vitro or in vivo. The formulations were prepared according to the protocol of Example 3 and mixed by simple pipetting. The mRNA/peptoid formulation at a 5:1 mass ratio of peptoid:cargo were evaluated by dynamic light scattering (DLS) in order to determine the volume average particle size/diameter (nm) of the mRNA/peptoid complex and the size polydispersity index (PDI) within the formulation. The percentage of mRNA encapsulation for each formulation of the exemplary compounds were determined by fluorescence of the Qubit RNA HS (Invitrogen) dye before and after lysis of particles by Triton X-100.

HeLa cells = assay: In vitro firefly luciferase (Fluc) expression after treatment with Fluc mRNA/amino lipidated peptoid formulations; type: cell-based; conditions: peptoid:Fluc mRNA 5:1 w/w, 100 ng/well; for Luciferase Expression (RLU) 6 h: 6 hours of treatment; for Luciferase Expression (RLU) 24 h: 24 hours of treatment
Protocol: The efficacy of mRNA/amino lipidated peptoid formulations was evaluated in vitro based on their ability to deliver the firefly luciferase (Fluc) reporter gene to cultured cells. The amino lipidated cationic peptoids 1-36 of Example 2 were individually combined with Fluc mRNA at a 5:1 w/w ratio, and the resulting particles were added to cultured HeLa cells at a dose of 100 ng/well (in 100 μL total volume). The resulting luciferase expression (RLU) was measured by a luminescence plate reader after 6 hours and 24 hours of treatment.

[2] = Dynamic light scattering of Fluc mRNA/peptoid formulations (particle size, PDI); type: physicochemical; conditions: Fluc mRNA/peptoid formulation, 5:1 mass ratio peptoid:cargo; for Size PDI: size polydispersity index by DLS; for Size (nm): volume average particle size/diameter by DLS
Protocol: as §1

SMILES | % Encapsulation [1] | Luciferase Expression (RLU) 6 h (HeLa cells) | Luciferase Expression (RLU) 24 h (HeLa cells) | Size PDI [2] | Size (nm) [2]
CCCCCCCCCCN(CC(N)=O)C(=O)CN(CCCCCCCCCC)C(=O)CN(CCCCCCCCCC)C(=O)CN(CCCCCCCCCC)C(=O)CN(CCc1ccccc1)C(=O)CN(CCc1ccccc1)C(=O)CN(CCN)C(=O)CN(CCc1ccccc1)C(=O)CN(CCc1ccccc1)C(=O)CN(CCN)C(=O)CN(CCc1ccccc1)C(=O)CN(CCc1ccccc1)C(=O)CNCCN [Compound 8] | 82.5% | 1.10E+04 RLU | 1.33E+04 RLU | 0.077 | 234 nm
CCCCCCCCCCN(CC(=O)N(CC(=O)N(CCCCCCCCCC)CC(=O)N(CC(N)=O)CC(CC)CCCC)CC(CC)CCCC)C(=O)CN(CCc1ccccc1)C(=O)CN(CCc1ccccc1)C(=O)CN(CCN)C(=O)CN(CCc1ccccc1)C(=O)CN(CCc1ccccc1)C(=O)CN(CCN)C(=O)CN(CCc1ccccc1)C(=O)CN(CCc1ccccc1)C(=O)CNCCN (stereo not shown) [Compound 24] | 87.0% | 1.79E+04 RLU | 3.43E+04 RLU | 0.135 | 161 nm
CCCCCCCCCCN(CC(N)=O)C(=O)CN(CCCCCCCCCC)C(=O)CN(CCCCCCCCCC)C(=O)CN(CCCCCCCCCC)C(=O)CN(CCCCCCCCCC)C(=O)CN(CCc1ccccc1)C(=O)CN(CCc1ccccc1)C(=O)CN(CCN)C(=O)CN(CCc1ccccc1)C(=O)CN(CCc1ccccc1)C(=O)CN(CCN)C(=O)CN(CCc1ccccc1)C(=O)CN(CCc1ccccc1)C(=O)CNCCN [Compound 19] | 70.9% | 8.20E+03 RLU | 1.09E+04 RLU | 0.158 | 276 nm
CCCCCCCCCCN(CC(N)=O)C(=O)CN(CCCCCCCCCC)C(=O)CN(CCCCCCCCCC)C(=O)CN(CCCCCCCCCC)C(=O)CN(CCc1ccccc1)C(=O)CN(CCc1ccccc1)C(=O)CN(CCCN)C(=O)CN(CCc1ccccc1)C(=O)CN(CCc1ccccc1)C(=O)CN(CCCN)C(=O)CN(CCc1ccccc1)C(=O)CN(CCc1ccccc1)C(=O)CN(CCCN)C(=O)CN(CCc1ccccc1)C(=O)CN(CCc1ccccc1)C(=O)CNCCCN [Compound 29] | 24.8% | 1.64E+03 RLU | 6.72E+03 RLU | 0.237 | 343.4 nm
CCCCCCCCCCN(CC(N)=O)C(=O)CN(CCCCCCCCCC)C(=O)CN(CCc1ccccc1)C(=O)CN(CCc1ccccc1)C(=O)CN(CCN)C(=O)CN(CCc1ccccc1)C(=O)CN(CCc1ccccc1)C(=O)CN(CCN)C(=O)CN(CCc1ccccc1)C(=O)CN(CCc1ccccc1)C(=O)CN(CCN)C(=O)CN(CCc1ccccc1)C(=O)CN(CCc1ccccc1)C(=O)CN(CCN)C(=O)CN(CCc1ccccc1)C(=O)CN(CCc1ccccc1)C(=O)CNCCN [Compound 12] | 86.5% | 4.04E+02 RLU | 5.71E+02 RLU | 0.211 | 224.4 nm
CCCCCCCCCCN(CC(N)=O)C(=O)CN(CCCCCCCCCC)C(=O)CN(CCCCCCCCCC)C(=O)CN(CCCCCCCCCC)C(=O)CN(CCc1ccccc1)C(=O)CN(CCc1ccccc1)C(=O)CN(CC1CCCN1)C(=O)CN(CCc1ccccc1)C(=O)CN(CCc1ccccc1)C(=O)CN(CC1CCCN1)C(=O)CN(CCc1ccccc1)C(=O)CN(CCc1ccccc1)C(=O)CNCC1CCCN1 (stereo not shown) [Compound 34] | 58.0% | 1.95E+03 RLU | 2.71E+03 RLU | 0.295 | 348.4 nm
CCCCCCCCCCN(CC(N)=O)C(=O)CN(CCCCCCCCCC)C(=O)CN(CCCCCCCCCC)C(=O)CN(CCCCCCCCCC)C(=O)CN(CCc1ccccc1)C(=O)CN(CCc1ccccc1)C(=O)CN(CC1CCCN1)C(=O)CN(CCc1ccccc1)C(=O)CN(CCc1ccccc1)C(=O)CN(CC1CCCN1)C(=O)CN(CCc1ccccc1)C(=O)CN(CCc1ccccc1)C(=O)CN(CC1CCCN1)C(=O)CN(CCc1ccccc1)C(=O)CN(CCc1ccccc1)C(=O)CNCC1CCCN1 (stereo not shown) [Compound 35] | 38.0% | 1.22E+03 RLU | 1.60E+03 RLU | 0.486 | 359.8 nm
CCCCCCCCCCN(CC(N)=O)C(=O)CN(CCCCCCCCCC)C(=O)CN(CCCCCCCCCC)C(=O)CN(CCCCCCCCCC)C(=O)CN(CCCCCCCCCC)C(=O)CN(CCc1ccccc1)C(=O)CN(CCc1ccccc1)C(=O)CN(CCN)C(=O)CN(CCc1ccccc1)C(=O)CN(CCc1ccccc1)C(=O)CN(CCN)C(=O)CN(CCc1ccccc1)C(=O)CN(CCc1ccccc1)C(=O)CN(CCN)C(=O)CN(CCc1ccccc1)C(=O)CN(CCc1ccccc1)C(=O)CNCCN [Compound 21] | 65.4% | 3.45E+03 RLU | 1.24E+04 RLU | 0.174 | 386.5 nm
